Reference: publication PMC5017735, “A Novel Peptide Derived from the Fusion Protein Heptad Repeat Inhibits Replication of Subacute Sclerosing Panencephalitis Virus In Vitro and In Vivo” (PLoS ONE, 2016)
Peptide text beside a SMILES is read from it.

Key:
MV Edmonston strain = test: Viral plaque reduction assay, measles virus in Vero cells; type: cell-based; conditions: Vero cells
Method: (§1) African green monkey kidney (Vero) cells and Vero cells expressing human SLAM (Vero/SLAM cells) were used in all experiments. The growth medium for Vero cells comprised minimal essential medium (MEM) supplemented with 10% heat-inactivated newborn bovine serum, penicillin G (100 IU/ml), streptomycin (100 μg/ml), and L-glutamine (300 μg/ml). The same growth medium, which was further supplemented with G418 (400 μg/ml), was used for Vero/SLAM cells. Cells were seeded into the wells (22 mm) of 12-well tissue culture plates at 1 × 10^5 cells/well and incubated at 37°C in a 10% CO2 incubator for 3 days, at which time they had just reached confluence. The virus strains used were human MV Edmonston strain and SSPE Yamagata-1 [34], which was originally isolated from the brain of an SSPE patient. The Edmonston strain of MV was used to inoculate Vero/SLAM cells and harvested after freeze–thawing infected cells. The SSPE Yamagata-1 strain was cultured in Vero/SLAM cells, harvested by trypsinization, prepared as an infected cell suspension in the Vero/SLAM cell medium supplemented with 10% dimethyl sulfoxide, and stored at −80°C until use.
(§2) Screening was performed to evaluate the antiviral effects of each synthetic peptide against the MV and SSPE viruses using the viral plaque reduction assay. Based on the results of the peptide screening, the 50% effective concentration (EC50), i.e., the concentration of compounds required to inhibit virus plaque formation by 50%, was also determined. The Human MV Edmonston strain was used to produce cell-free virions, which yielded a reproducible number of syncytia [generally 200–300 plaque-forming units (PFUs)] in the control wells. The SSPE virus was also used to yield a reproducible number of syncytia (generally 70–150 PFU) in control wells. In the peptide screening assay, each synthetic peptide was used at a concentration of 10 μM. IFN-α and enfuvirtide, a peptide fusion inhibitor of HIV-1, were used as controls at a concentration of 250 IU/ml and 10 μM, respectively.

[1] = In vivo toxicity, mice administered peptides alone; design: species or system BALB/cAJcl-nu/nu mice; conditions: peptide 100 μM intracranial, no virus infection
Method: (§3) Based on a previous report, but with slight modifications, 3-week-old female BALB/cAJcl-nu/nu mice (CLEA Japan Inc., Tokyo, Japan) were used in the animal experiments. Mice were divided in four groups (n = 6 for each cage) and housed with free access to both water and food and monitored daily. The mice were SSPE virus-infected or mock-infected (MEM alone) intracranially. An SSPE virus-infected cell suspension containing 250 PFU/ 30 μl (100% lethal dose) was inoculated into the subarachnoid space of nude mice using a 27-gauge double needle at a depth of 2 mm. Each compound was prepared at a concentration of 100 μM and was injected intracranially at 0 (mixed with viruses), 6, and 24 h after the initial virus inoculation. All injections were performed under inhalational anesthesia with isoflurane. Each mouse was checked for neurological symptoms and weighed daily. The ethical endpoint was defined as <75% of their maximum weight because most mice would die within 24 h. On attaining this endpoint, the mice were sacrificed by cervical dislocation under inhalational anesthesia with isoflurane. In this experiment, five mice died of natural causes before the ethical endpoint; however, all mice had neurological symptoms and 9.5%, 13.2%,14.5%, 15.8%, 16.4% weight loss (one each) relative to their maximum weight. This study was approved by the control of the Animal Research Committee in accordance with the Guidelines on Animal Experiments in Fukushima Medical University and the Rules for the Protection and Care of Animals (approval number: 23038).

SSPE Yamagata-1 strain [2] = test: Viral plaque reduction assay, SSPE virus in Vero/SLAM cells; type: cell-based, SSPE virus (variant measles virus)
Method: as §1, §2

SSPE Yamagata-1 strain [3] = test: Viral RNA quantification in whole brain of SSPE virus-infected nude mice; type: in vivo, BALB/cAJcl-nu/nu mice; conditions: day 14 post-infection; intracranial peptide; n = 5 per group; P < 0.05
Method: Mice were divided in three groups (n = 5 for each cage) and housed with free access to both water and food and monitored daily. Mice were infected with SSPE virus intracranially in the same as animal survival experiments. Euthanasia was performed by cervical dislocation under isoflurane anesthesia on day 14 post-infection. The brain of each mouse was immediately harvested and mechanically homogenized with 2 ml Vero/SLAM cell growth medium using a PRO200 handheld or post-mounted homogenizer (PRO Scientific Inc., CT, USA). The homogenized brains were stored at −80°C. Viral RNA was extracted using ISOGEN-LS, and cDNA was synthesized using a reverse transcription kit (PrimeScript RT-reagent kit). MV RNA was quantified using a TaqMan real-time polymerase chain reaction assay, as previously described. The primer and probe were designed based on the MV Edmonston strain N gene, as previously reported. PCR amplification was performed using a 7300 Real-Time PCR system (Applied Biosystem). The control plasmid was produced by Dragon Genomics Center (Takara Bio, Mie, Japan) based on the MV Edmonston strain N gene (position 1321–1500).

SSPE Yamagata-1 strain [4] = test: Animal survival experiment, SSPE virus-infected nude mouse model; type: in vivo, BALB/cAJcl-nu/nu mice; conditions: SSPE virus 250 PFU intracranial; peptide 100 μM intracranial at 0, 6 and 24 h; n = 6; control group 0%
Method: as §3, with “This study was approved by the control of the Animal Research Committee in accordance with the Guidelines on Animal Experiments in Fukushima Medical University and the Rules for the Protection and Care of Animals (approval number: 23038).” left out

Vero/SLAM cells = test: Methyl tetrazolium cytotoxicity assay, Vero/SLAM cells; type: cell-based, African green monkey; conditions: confluent Vero/SLAM cells, 24 h, 37°C
Method: (§4) Peptide cytotoxicity was determined using the methyl tetrazolium assay. Five-fold serial dilutions of peptides were added to confluent Vero or Vero/SLAM cells. Cells were then incubated at 37°C for 24 h, and the number of viable cells was determined using 3-(4,5-dimethyllthiazol-2-yl)-2,5-diphenylterazolium bromide (Sigma–Aldrich, Tokyo, Japan). The 50% cytotoxic concentration (CC50), which was defined as the concentration required to reduce the cell viability by 50% relative to that of untreated controls, was determined. The selectivity index (SI) was defined as the ratio of the CC50 relative to the EC50 value.

Vero cells = test: Methyl tetrazolium cytotoxicity assay, Vero cells; type: cell-based, African green monkey; conditions: confluent Vero cells, 24 h, 37°C
Method: as §4

SSPE Yamagata-1 strain [5] = test: Viral plaque reduction assay, SSPE virus in Vero cells; type: cell-based, SSPE virus (variant measles virus)
Method: as §1, §2

SSPE virus = test: Time-of-addition experiments, SSPE virus in Vero cells; type: cell-based, SSPE virus (variant measles virus)
Method: Synthetic peptides, M1 and M2EK (10 μM each) were used in time-of-addition experiments. Each peptide was added to Vero cells at three distinct time points: prior to infection (pretreatment with the compound), at the same time as the virus infection (simultaneous infection), or post-infection (post-entry). The SSPE virus was prepared to yield a reproducible number of syncytia in untreated control wells (approximately 50–100/well). In the pretreatment assay, peptide was added to confluent cells and incubated at 37°C for 30 min, and the cell cultures were washed with MEM before viral inoculation. Cells were then challenged with the SSPE virus at 0°C for 30 min. In the simultaneous infection assay, SSPE virus with peptide was inoculated at 0°C for 30 min. After the adsorption, the cell cultures were subsequently washed with MEM, and growth medium containing 0.75% methylcellulose was overlaid on the cell cultures, followed by incubation for 3 days in both pretreatment and simultaneous infection assays. In the post-entry assay, cells were challenged with the SSPE virus at 0°C for 30 min. After adsorption, the cell cultures were subsequently washed with MEM and peptide, which was prepared in growth medium containing 0.75% methylcellulose, was subsequently overlaid on the cell cultures at distinct time points. The starting point when cells were incubated at 0°C for 30 min was defined as t0.

[6] = selectivity index, ratio of CC50 relative to EC50

Question: Which results are given for `CC[C@H](C)[C@H](NC(=O)[C@H](CCC(=O)O)NC(=O)[C@H](CCC(=O)O)NC(=O)[C@H](CO)NC(=O)[C@H](CCCCN)NC(=O)[C@H](CCCCN)NC(=O)[C@H](CC(C)C)NC(=O)[C@H](CC(C)C)NC(=O)[C@H](CCC(=O)O)NC(=O)[C@H](CCC(=O)O)NC(=O)[C@H](C)NC(=O)[C@H](CCCCN)NC(=O)[C@H](CCCCN)NC(=O)[C@H](CC(C)C)NC(=O)[C@H](CCCCN)NC(=O)[C@H](CCC(=O)O)NC(=O)[C@H](CCC(=O)O)NC(=O)[C@H](C)NC(=O)[C@H](CCCCN)NC(=O)[C@H](CCCCN)NC(=O)[C@H](CC(C)C)NC(=O)[C@H](CC(N)=O)NC(=O)[C@H](CCC(=O)O)NC(=O)[C@H](CCC(=O)O)NC(=O)[C@@H](NC(C)=O)C(C)C)C(=O)N[C@@H](CC(C)C)C(=O)N[C@@H](CCCCN)C(=O)N[C@@H](CCCCN)C(=O)N[C@@H](CCSC)C(=O)N[C@@H](CCC(=O)O)C(=O)N[C@@H](CCC(=O)O)C(=O)N[C@@H](CC(C)C)C(=O)N[C@@H](CO)C(=O)N[C@@H](CCCCN)C(=O)N[C@@H](CCCCN)C(N)=O` [Peptide M2EK] (Ac-VEENLKKAEEKLKKAEELLKKSEEILKKMEELSKK-NH2)?
Answer: EC50 (MV Edmonston strain; plaque reduction, MV Edmonston strain, mean ± SD): 100 ± 70 nM; SI, measles virus (Vero cells) (MV Edmonston strain; [6]): >989; survival of mice administered with peptides alone, with no symptoms [1]: > 45 days; EC50 (SSPE Yamagata-1 strain [2]; plaque reduction, SSPE Yamagata-1 strain, mean ± SD): 20 ± 10 nM; SI, SSPE virus (Vero/SLAM cells) (SSPE Yamagata-1 strain [2]; [6]): >6579; viral RNA copies in whole brain, lower than in M1-treated mice (SSPE Yamagata-1 strain [3]): approximately four; viral RNA copies in whole brain, lower than in enfuvirtide-treated mice (SSPE Yamagata-1 strain [3]): approximately three; survival rate (SSPE Yamagata-1 strain [4]): 67%; CC50, SSPE virus (Vero/SLAM cells) (Vero/SLAM cells): >100000 nM; CC50, SSPE virus (Vero cells) (Vero cells): >100000 nM; CC50, measles virus (Vero cells) (Vero cells): >100000 nM; inhibition of plaque formation compared with the control group, SSPE Yamagata-1 strain (peptide screening) (SSPE Yamagata-1 strain [5]; peptide 10 μM, Vero cells and Vero/SLAM cells (Fig 2C), duplicate, at least twice independently): > 97%; EC50 (SSPE Yamagata-1 strain [5]; plaque reduction, SSPE Yamagata-1 strain, Vero cells, mean ± SD): 50 ± 30 nM; SI, SSPE virus (Vero cells) (SSPE Yamagata-1 strain [5]; selectivity index, ratio of CC50 relative to EC50, Vero cells): >2041; viral inhibitory effect, peptide added post-infection (post-entry) (SSPE virus; peptide 10 μM overlaid at distinct time points after adsorption): observed in a time-dependent manner, particularly within 24 h; viral plaque numbers, peptide added before viral adsorption or at the same time as virus inoculation (SSPE virus; peptide 10 μM, pretreatment 37°C 30 min or simultaneous with SSPE virus 0°C 30 min, compared with control): no reduction in viral plaque numbers
